IC50 data for eight compounds are collected here from US9416133B2, “Hydropyrrolopyrrole derivatives for use as fatty acid synthase inhibitors” (MERCK PATENT GMBH, priority 2012, dated 2016).

Some results are limits rather than exact numbers.

This assay has as its target T1, human recombinant full-length fatty acid synthase (FASN) (Homo sapiens, UniProt P49327).
T1 construct: 40 nM human recombinant full-length fatty acid synthase (produced in-house in SF9 cells); made in house; host or cells: SF9 cells
The experiment in a line: Biochemical activity testing of human fatty acid synthase FASN (NADPH fluorescence intensity enzyme assay). To be noted: inhibition of NADPH conversion. From the text: Biochemical Activity Testing of Human Fatty Acid Synthase FASN
Fatty acid synthase FASN is a multifunctional enzyme with seven catalytic activities thereby synthesising long chain fatty acids especially palmitoyl-CoA in the presence of co-factor NADPH starting from the substrates acetyl-CoA and malonyl-CoA. The reductive synthesis is realized by the oxidation of NADPH to NADP. Since NADPH has a high fluorescence intensity quantum yield compared to NADP with excitation at 340 nm and emission at 460 nm, the reaction can be monitored via the decrease in fluorescence intensity. The biochemical FASN activity testing was performed as 384 well two-time-point kinetic fluorescence intensity assay format in Greiner low volume medium binding 384-well black microtiter plates in a total assay volume of 8 μl and was used for high throughput screen. In each well 3 μl 40 nM human recombinant full-length fatty acid synthase (produced in-house in SF9 cells) were dispensed in the following assay buffer: 50 mM potassium phosphate buffer pH 7.0, 0.005% (w/v) BSA, 2 mM Glutathione, 0.02% Tween-20. Then 2 μl of 200 μM NADPH in assay buffer were added, followed by the addition of the test compounds in 10 dilution concentrations starting with 30 μM (final concentration) to get a final DMSO content of 1% (v/v). The mixture was incubated for at least 15 min at room temperature. After the pre-incubation the enzymatic reaction was started by the addition of 2 μl substrate solution (80 μM acetyl-CoA, 240 μM malonyl-CoA). A first fluorescence intensity measurement (time point one) was performed with an Envision multimode reader (Perkin Elmer LAS Germany GmbH) at excitation wavelength 340 nm (lamp mode) and emission wavelength 460 nm. The reaction was incubated for 30 minutes at room temperature. After this the fluorescence intensity was measured again in the Envision using the same parameters as described above (second time point measurement). The data were analysed by subtracting the first time point measurement value from the second time point measurement value (after the enzymatic reaction). The differences of the emission signals were determined. These reflect directly the conversion rate of NADPH. The full value used was the inhibitor-free reaction. A pharmacological zero value was used like GSK837149A (Sigma-Aldrich) in a final concentration of 5-10 μM. The inhibitory values (IC50) were determined using either the program Symyx Assay Explorer® or Condosseo® from GeneData.

T1 sequence (P49327 whole entry): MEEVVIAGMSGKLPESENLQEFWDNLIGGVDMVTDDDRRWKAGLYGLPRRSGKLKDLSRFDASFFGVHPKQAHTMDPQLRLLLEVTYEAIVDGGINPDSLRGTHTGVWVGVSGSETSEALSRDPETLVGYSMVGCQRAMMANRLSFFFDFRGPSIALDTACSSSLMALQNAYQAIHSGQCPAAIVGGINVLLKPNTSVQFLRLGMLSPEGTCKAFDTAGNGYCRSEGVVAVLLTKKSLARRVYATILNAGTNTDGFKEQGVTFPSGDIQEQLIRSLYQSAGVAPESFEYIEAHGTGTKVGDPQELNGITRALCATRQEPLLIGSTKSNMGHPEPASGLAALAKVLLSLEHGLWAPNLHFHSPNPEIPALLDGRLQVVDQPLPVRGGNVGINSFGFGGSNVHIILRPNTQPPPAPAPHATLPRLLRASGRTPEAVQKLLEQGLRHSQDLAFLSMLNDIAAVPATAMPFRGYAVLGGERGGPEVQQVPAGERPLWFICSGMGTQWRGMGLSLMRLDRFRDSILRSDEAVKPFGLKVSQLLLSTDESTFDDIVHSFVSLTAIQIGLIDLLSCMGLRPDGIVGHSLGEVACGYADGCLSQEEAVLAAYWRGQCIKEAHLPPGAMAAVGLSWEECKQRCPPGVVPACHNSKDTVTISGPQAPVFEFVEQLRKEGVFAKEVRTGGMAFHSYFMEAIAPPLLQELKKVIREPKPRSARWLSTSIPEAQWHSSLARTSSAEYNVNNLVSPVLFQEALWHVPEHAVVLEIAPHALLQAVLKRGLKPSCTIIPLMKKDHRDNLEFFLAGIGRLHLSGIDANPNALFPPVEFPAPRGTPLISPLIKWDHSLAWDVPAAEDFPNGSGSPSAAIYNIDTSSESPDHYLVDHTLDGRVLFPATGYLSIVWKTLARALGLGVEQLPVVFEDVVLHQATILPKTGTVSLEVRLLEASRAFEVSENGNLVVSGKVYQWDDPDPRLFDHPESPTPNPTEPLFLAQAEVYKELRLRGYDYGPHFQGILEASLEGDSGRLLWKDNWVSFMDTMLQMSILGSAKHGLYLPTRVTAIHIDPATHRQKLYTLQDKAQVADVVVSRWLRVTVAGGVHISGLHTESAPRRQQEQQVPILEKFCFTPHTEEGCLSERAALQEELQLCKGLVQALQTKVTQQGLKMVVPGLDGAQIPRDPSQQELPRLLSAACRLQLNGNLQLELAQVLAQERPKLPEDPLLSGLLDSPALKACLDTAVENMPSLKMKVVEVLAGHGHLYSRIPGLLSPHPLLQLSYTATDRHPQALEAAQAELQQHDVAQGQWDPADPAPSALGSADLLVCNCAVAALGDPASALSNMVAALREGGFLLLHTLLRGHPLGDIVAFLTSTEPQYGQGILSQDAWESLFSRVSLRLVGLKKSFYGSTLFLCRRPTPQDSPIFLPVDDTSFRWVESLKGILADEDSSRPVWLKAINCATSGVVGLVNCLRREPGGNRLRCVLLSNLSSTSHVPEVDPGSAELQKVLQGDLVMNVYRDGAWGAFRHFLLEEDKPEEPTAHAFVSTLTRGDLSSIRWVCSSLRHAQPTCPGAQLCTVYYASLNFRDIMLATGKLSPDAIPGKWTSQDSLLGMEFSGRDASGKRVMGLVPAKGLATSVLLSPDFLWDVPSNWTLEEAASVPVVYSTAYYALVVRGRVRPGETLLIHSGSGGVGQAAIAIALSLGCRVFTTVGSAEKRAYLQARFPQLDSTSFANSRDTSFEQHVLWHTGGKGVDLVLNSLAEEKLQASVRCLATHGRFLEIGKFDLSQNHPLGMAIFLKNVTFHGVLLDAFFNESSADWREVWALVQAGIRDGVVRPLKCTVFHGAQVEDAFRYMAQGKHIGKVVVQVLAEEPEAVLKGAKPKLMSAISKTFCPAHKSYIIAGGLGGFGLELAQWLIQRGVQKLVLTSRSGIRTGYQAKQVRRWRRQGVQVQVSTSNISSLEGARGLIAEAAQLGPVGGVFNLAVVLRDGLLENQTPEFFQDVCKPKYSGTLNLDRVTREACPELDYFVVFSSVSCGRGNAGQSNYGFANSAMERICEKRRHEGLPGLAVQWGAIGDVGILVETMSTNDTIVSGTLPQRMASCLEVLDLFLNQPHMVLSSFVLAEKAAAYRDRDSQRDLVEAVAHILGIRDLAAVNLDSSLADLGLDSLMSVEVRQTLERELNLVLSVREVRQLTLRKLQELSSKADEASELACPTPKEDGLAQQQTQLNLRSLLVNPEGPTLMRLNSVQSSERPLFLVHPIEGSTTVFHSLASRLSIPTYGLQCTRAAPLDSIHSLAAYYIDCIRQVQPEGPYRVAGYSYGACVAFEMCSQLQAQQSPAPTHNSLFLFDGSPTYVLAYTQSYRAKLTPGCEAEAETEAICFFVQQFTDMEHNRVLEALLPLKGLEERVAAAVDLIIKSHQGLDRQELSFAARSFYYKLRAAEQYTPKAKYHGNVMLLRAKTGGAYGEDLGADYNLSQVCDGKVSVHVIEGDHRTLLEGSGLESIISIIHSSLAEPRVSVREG

As for `CCC(=O)N1CC2CN(C(=O)c3ccc(-c4ccc5cnccc5c4)cc3)CC2C1` (centres unmarked) [Compound A1, 1-[5-(4-isoquinolin-6-yl-benzoyl)-hexahydro-pyrrolo[3,4-c]pyrrol-2-yl]-propan-1-one], the IC50 was less than 0.3 µM.
Consider `O=C(c1ccc(-c2ccc3cnccc3c2)cc1)N1CC2CN(C(=O)C3CC3)CC2C1` (centres unmarked) [Compound A8, (5-cyclopropanecarbonyl-hexahydro-pyrrolo[3,4-c]pyrrol-2-yl)-(4-isoquinolin-6-yl-phenyl)-methanone], for which the IC50 was 0.3 to 3 µM.
To `O=C(c1ccc(-c2ccc3cc[nH]c3c2)cc1)N1CC2CN(C(=O)C3CC3)CC2C1` (centres unmarked) [Compound A5, (5-cyclopropanecarbonyl-hexahydro-pyrrolo[3,4-c]pyrrol-2-yl)-[4-(1H-indol-6-yl)-phenyl]-methanone] belongs 0.3 to 3 µM; to `CCC(=O)N1CC2CN(C(=O)c3ccc(-c4ccc5cc[nH]c5c4)cc3)CC2C1` (centres unmarked) [Compound A4, 1-{5-[4-(1H-indol-6-yl)-benzoyl]-hexahydro-pyrrolo[3,4-c]pyrrol-2-yl}-propan-1-one], 0.3 to 3 µM; to `CC(=O)N1CC2CN(C(=O)c3ccc(-c4ccc5cc[nH]c5c4)cc3)CC2C1` (centres unmarked) [Compound A7, 1-{5-[4-(1H-indol-6-yl)-benzoyl]-hexahydro-pyrrolo[3,4-c]pyrrol-2-yl}-ethanone], 0.3 to 3 µM.
To `CC(=O)N1CC2CN(C(=O)c3ccc(-c4ccc5ccoc5c4)cc3)CC2C1` (centres unmarked) [Compound A6, 1-[5-(4-benzofuran-6-yl-benzoyl)-hexahydro-pyrrolo[3,4-c]pyrrol-2-yl]-ethanone] belongs 3 to 50 µM; to `CC(=O)N1CC2CN(C(=O)c3ccc(-c4ccc5cnccc5c4)cc3)CC2C1` (centres unmarked) [Compound A3, 1-[5-(4-isoquinolin-6-yl-benzoyl)-hexahydro-pyrrolo[3,4-c]pyrrol-2-yl]-ethanone], 0.3 to 3 µM.
For the compound `CCC(=O)N1CC2CN(C(=O)c3ccc(-c4ccc5ccoc5c4)cc3)CC2C1` (centres unmarked) [Compound A2, 1-[5-(4-benzofuran-6-yl-benzoyl)-hexahydro-pyrrolo[3,4-c]pyrrol-2-yl]-propan-1-one], the half-maximal inhibitory concentration (IC50) lay in the range of 0.3 to 3 µM.
